For test [1], the target named is T1, MMP-13CD (catalytic domain of collagenase 3) (Homo sapiens, UniProt P45452). In words: biochemical.
The target of test [2] is T2, MMP-1FL (full-length interstitial collagenase) (Homo sapiens, UniProt P03956).
T2 sequence (P03956 100-469): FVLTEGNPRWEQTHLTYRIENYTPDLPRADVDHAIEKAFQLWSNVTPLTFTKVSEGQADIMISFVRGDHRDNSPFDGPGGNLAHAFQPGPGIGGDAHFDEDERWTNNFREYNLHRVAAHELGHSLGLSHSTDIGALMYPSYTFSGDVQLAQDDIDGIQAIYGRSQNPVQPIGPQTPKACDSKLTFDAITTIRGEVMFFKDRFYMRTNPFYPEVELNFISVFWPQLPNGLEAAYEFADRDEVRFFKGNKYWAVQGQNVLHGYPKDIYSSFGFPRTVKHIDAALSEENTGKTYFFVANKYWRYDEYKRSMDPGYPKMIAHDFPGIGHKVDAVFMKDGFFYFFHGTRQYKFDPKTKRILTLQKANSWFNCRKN
In words: Thiopeptolide hydrolysis assay, MMP-1. The following applies: read-out: MMP01 IC50. The format is biochemical.

The target in test [3] is MMP-3CD (catalytic domain of stromelysin) (Homo sapiens, UniProt P08254). In words: Thiopeptolide hydrolysis assay, MMP-3.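 Note: inhibition of thiopeptolide substrate (100 µM) cleavage by the MMP-3 catalytic domain, detected with DTNB at pH 6.0 with CaCl2, hydrolysis compared against runs lacking inhibitor.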 The test is classed as biochemical.
Chain of MMP-3CD (catalytic domain of stromelysin) (P08254 100-272 limits assumed): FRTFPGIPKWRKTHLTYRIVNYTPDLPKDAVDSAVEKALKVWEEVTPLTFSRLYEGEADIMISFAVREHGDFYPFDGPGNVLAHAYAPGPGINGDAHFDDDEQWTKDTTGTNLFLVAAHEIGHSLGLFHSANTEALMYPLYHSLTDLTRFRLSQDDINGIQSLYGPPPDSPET
Protocol: They measure the amount by which a test compound reduces the hydrolysis of a thiopeptolide substrate caused by a matrix metalloproteinase enzyme.
Thiopeptolide substrates show virtually no decomposition or hydrolysis in the absence of a matrix metalloproteinase enzyme. A typical thiopeptolide substrate commonly utilized for assays is Ac-Pro-Leu-Gly-thioester-Leu-Leu-Gly-OEt. A 100 μL assay mixture will contain 50 mM of 2-morpholinoethane sulfonic acid monohydrate (MES, pH 6.0) 10 mM CaCl2, 100 μM thiopeptolide substrate, and 1 mM 5,5′-dithio-bis-(2-nitro-benzoic acid) (DTNB). […] Assays are carried out with and without matrix metalloproteinase inhibitor compounds, and the amount of hydrolysis is compared for a determination of inhibitory activity of the test compounds.
In test [4] the target is T1, MMP-13CD (catalytic domain of collagenase 3). In words: Thiopeptolide hydrolysis assay, MMP-13.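 Note: inhibition of enzymatic thiopeptolide substrate cleavage (100 µM) in pH 6.0 MES buffer with CaCl2 and DTNB, comparing hydrolysis with versus without inhibitor.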

“And” between values parts separate entries of the source, which are not always exact repeats. Equal entries are not always repeated. Structures can show the parent of a compound that is named as a salt. Where two headings read alike, the source gives them in different places.

As a reminder, the IC50 is the concentration that gives 50% inhibition. With `O=C(NCc1ccc(Cl)cc1)c1ccc2[nH]c(=O)n(Cc3ccccc3)c(=O)c2c1` [3-Benzyl-2,4-dioxo-1,2,3,4-tetrahydroquinazoline-6-carboxylic acid 4-chlorobenzylamide], 167 nM corresponded to half-maximal inhibition in test [1] (IC50).

In test [1], `CC(C)Cn1c(=O)n(Cc2ccccc2)c(=O)c2cc(C(=O)NCc3ccc4c(c3)OCO4)ccc21` [3-Benzyl-1-isobutyl-2,4-dioxo-1,2,3,4-tetrahydroquinazoline-6-carboxylic acid (benzo[1,3]dioxol-5-ylmethyl)amide] came in with an IC50 of 600 nM.

In the case of `O=C(NCc1ccc2c(c1)OCO2)c1ccc2[nH]c(=O)n(Cc3ccc(Cl)cc3)c(=O)c2c1` [Synthesis Example 32, 3-(4-Chlorobenzyl)-2,4-dioxo-1,2,3,4-tetrahydroquinazoline-6-carboxylic acid (benzo[1,3]dioxol-5-ylmethyl)amide], inhibition in test [1] was half-maximal at 28 nM (IC50).

As to `O=C(OCc1ccccc1)c1cnc2[nH]c(=O)n(Cc3ccccc3)c(=O)c2c1` [Benzyl 3-benzyl-2,4-dioxo-1,2,3,4-tetrahydropyrido[2,3-d]pyrimidine-6-carboxylate], the IC50 in test [1] came out at 96 nM.

Turning to `COc1ccc(CNC(=O)c2ccc3[nH]c(=O)n(Cc4ccccc4)c(=O)c3c2)cc1` [3-Benzyl-2,4-dioxo-1,2,3,4-tetrahydroquinazoline-6-carboxylic acid 4-methoxybenzylamide], the IC50 in test [1] was found to be 49 nM.

As for `Cn1c(=O)c2cc(C(=O)NCc3ccc4c(c3)OCO4)ccc2n(C)c1=O` [1,3-Dimethyl-2,4-dioxo-1,2,3,4-tetrahydroquinazoline-6-carboxylic acid (benzo[1,3]dioxol-5-ylmethyl)amide], in test [1], the IC50 worked out at 1700 nM.

The compound `Cn1c(=O)n(Cc2ccccc2)c(=O)c2cc(C(=O)OCc3ccc4c(c3)OCO4)ccc21` [Synthesis Example 46, Benzo[1,3]dioxol-5-ylmethyl 3-benzyl-1-methyl-2,4-dioxo-1,2,3,4-tetrahydroquinazoline-6-carboxylate] gave an IC50 in test [1] of 2.5 nM.

With `Cn1c(=O)n(Cc2cccs2)c(=O)c2cc(C(=O)NCc3ccccc3)ccc21` [1-Methyl-2,4-dioxo-3-thien-2-ylmethyl-1,2,3,4-tetrahydroquinazoline-6-carboxylic acid benzylamide], the IC50 in test [1] is 96 nM.

In the case of `Cn1c(=O)n(CCc2ccccc2)c(=O)c2cc(C(=O)NCc3ccc4c(c3)OCO4)ccc21` [1-Methyl-2,4-dioxo-3-phenethyl-1,2,3,4-tetrahydroquinazoline-6-carboxylic acid (benzo[1,3]dioxol-5-ylmethyl)amide], in test [1], half-maximal inhibition (IC50) required 700 nM.

In test [1], `COc1cc(CNC(=O)c2ccc3c(c2)c(=O)n(Cc2ccccc2)c(=O)n3C)ccc1O` [Synthesis Example 25, 3-Benzyl-1-methyl-2,4-dioxo-1,2,3,4-tetrahydroquinazoline-6-carboxylic acid 4-hydroxy-3-methoxybenzylamide] came in with an IC50 of 51 nM.

`COc1ccc(CNC(=O)c2ccc3c(c2)c(=O)n(Cc2ccc(OC)cc2)c(=O)n3C)cc1` [Synthesis Example 29, 3-(4-Methoxybenzyl)-1-methyl-2,4-dioxo-1,2,3,4-tetrahydroquinazoline-6-carboxylic acid 4-methoxybenzylamide]: the IC50 in test [1] worked out at 10 nM.

For the compound `Cn1c(=O)n(Cc2ccccc2)c(=O)c2cc(C(=O)NCc3ccc4c(c3)OCO4)ncc21` [Synthesis Example 53, 3-Benzyl-1-methyl-2,4-dioxo-1,2,3,4-tetrahydro-pyrido[3,4-d]pyrimidine-6-carboxylic acid (1,3-benzodioxol-5-ylmethyl)-amide], half-maximal inhibition in test [1] (IC50) required 1 nM.

Compound `Cn1c(=O)n(Cc2ccccc2)c(=O)c2cc(C(=O)OCc3ccccc3)ccc21` [Synthesis Example 42, Benzyl 3-benzyl-1-methyl-2,4-dioxo-1,2,3,4-tetrahydroquinazoline-6-carboxylate] yielded an IC50 in test [1] of 31 nM.

In test [1], `O=C(OCc1ccccc1)c1ccc2c(c1)c(=O)n(Cc1ccncc1)c(=O)n2Cc1ccccc1` [Benzyl 1-benzyl-2,4-dioxo-3-pyrid-4-ylmethyl-1,2,3,4-tetrahydroquin-azoline-6-carboxylate] had an IC50 of 1210 nM.

As to `COc1ccc(CNC(=O)c2cnc3c(c2)c(=O)n(Cc2ccc(C#N)cc2)c(=O)n3C)cc1` [Synthesis Example 51, 3-(4-Cyano-benzyl)-1-methyl-2,4-dioxo-1,2,3,4-tetrahydro-pyrido[2,3-d]pyrimidine-6-carboxylic acid 4-methoxy-benzylamide], half-maximal inhibition in test [1] (IC50) required 16 nM.

For the compound `Cn1c(=O)n(Cc2ccccc2)c(=O)c2cc(C(=O)NCc3ccc4c(c3)OCO4)cnc21` [Synthesis Example 49, 3-Benzyl-1-methyl-2,4-dioxo-1,2,3,4-tetrahydro-pyrido[2,3-d]pyrimidine-6-carboxylic acid (1,3-benzodioxol-5-ylmethyl)-amide], inhibition in test [1] was half-maximal at 7 nM (IC50).

With `COc1cccc(CNC(=O)c2ccc(OC)c(C(=O)NCc3cccc(OC)c3)c2)c1` [4-Methoxy-N,N′-bis-(3-methoxy-benzyl)-isophthalamide], the IC50 in test [2] (Table II) is more than 100000 nM; in test [3] (Table II, read-out: MMP03 IC50), more than 100000 nM; in test [4] (MMP13 IC50 (nM), Table II) it was 180 nM.

With `COc1ccc(C(=O)NCc2ccccc2)cc1C(=O)NCc1ccccc1` [N,N′-Dibenzyl-4-methoxy-isophthalamide], the IC50 in test [2] (Table II) is more than 100000 nM; in test [3] (Table II, read-out: MMP03 IC50) it was more than 100000 nM; in test [4] (MMP13 IC50 (nM), Table II), 1800 nM and 1100 nM.

For `O=C(NCc1cccc(Cl)c1)c1cccc(C(=O)NCc2cccc(Cl)c2)c1` [N,N′-Bis-(3-chloro-benzyl)-isophthalamide], the IC50 is more than 100000 nM in test [2] (Table II); 20000 nM in test [3] (Table II, read-out: MMP03 IC50); 2300 nM in test [4] (MMP13 IC50 (nM), Table II).

With `COc1ccc(CNC(=O)c2cccc(C(=O)NCc3ccc4c(c3)OCO4)c2)cc1`, the IC50 was more than 100000 nM in test [2] (Table II); more than 100000 nM in test [3] (MMP03 IC50 (nM), Table II); 1650 nM in test [4] (MMP13 IC50 (nM), Table II).

In the case of `COc1cc(CNC(=O)c2cccc(C(=O)NCc3ccc(F)c(OC)c3)c2)ccc1F` [N,N′-Bis-(4-fluoro-3-methoxy-benzyl)-isophthalamide], the IC50 is more than 100000 nM in test [2] (Table II); more than 100000 nM in test [3] (Table II, read-out: MMP03 IC50); 930 nM in test [4] (MMP13 IC50 (nM), Table II).

`COc1cccc(CNC(=O)c2cccc(C(=O)NCc3ccc(C(=O)O)cc3)c2)c1`: the IC50 in test [2] (Table II) is more than 100000 nM; in test [3] (Table II, read-out: MMP03 IC50) it was more than 100000 nM; in test [4] (MMP13 IC50 (nM), Table II) it was 77 nM.

In the case of `Cc1c(=O)n(Cc2ccc(C#N)cc2)c(=O)n2cc(C(=O)NCc3ccncc3)sc12` [hydrochloride], the IC50 in test [2] (Table 1b) is more than 30000 nM; in test [3] (Table 1b, read-out: MMP03 IC50), more than 30000 nM; in test [4] (MMP13 IC50 (μM), Table 1b), 54.7 nM.

For the compound `O=C(NCc1ccccc1)c1cn2c(=O)n(Cc3ccncc3)c(=O)cc2s1` [hydrochloride], the IC50 in test [2] (Table 1b) is more than 100000 nM; in test [3] (Table 1b, read-out: MMP03 IC50), more than 100000 nM; in test [4] (MMP13 IC50 (μM), Table 1b), 1800 nM.

Regarding `COc1ccc(CNC(=O)c2cccc(C(=O)NCc3ccc(OC)cc3)c2)cc1` [N,N′-Bis-(4-methoxy-benzyl)-isophthalamide], the IC50 in test [2] (Table II) is more than 100000 nM; in test [3] (Table II, read-out: MMP03 IC50) it was more than 100000 nM; in test [4] (MMP13 IC50 (nM), Table II) it was 1000 nM and 2740 nM.

As to `O=C(O)CN(Cc1ccccc1)C(=O)c1cccc(C(=O)NCc2ccc3c(c2)OCO3)c1`, the IC50 in test [2] (Table II) is more than 100000 nM; in test [3] (Table II, read-out: MMP03 IC50), more than 100000 nM; in test [4] (MMP13 IC50 (nM), Table II), 915 nM.

As for `Cc1c(=O)n(Cc2ccccc2)c(=O)n2cc(C(=O)NCc3cccnc3)sc12`, the IC50 in test [2] (Table 1b) is more than 100000 nM; in test [3] (Table 1b, read-out: MMP03 IC50), more than 30000 nM; in test [4] (MMP13 IC50 (μM), Table 1b), 225 nM.

With `O=C(NCc1ccc2c(c1)OCO2)c1cccc(C(=O)NCc2ccco2)c1`, the IC50 was more than 100000 nM in test [2] (Table II); more than 100000 nM in test [3] (Table II, read-out: MMP03 IC50); 3400 nM in test [4] (MMP13 IC50 (nM), Table II).

Values taken from patent US20050004126A1 (priority 2001, published 2005).
